Data on one compound can be found in PMC8975272, “Novel glucagon-like peptide-1 analogue exhibits potency-driven G-protein biased agonism with promising effects on diabetes and diabetic dry eye syndrome” (Bioengineered, 2022).

Molecules are shown by their SMILES.

One may read the half-life as the time needed for the level to fall by half in the phase considered. The low end stands for rapid decline, the high end for slow decline.

The target in series [1] is T1, GLP-1R (Homo sapiens, UniProt P43220). Nature of the series: GLP-1R endocytosis, high content imaging. Type of series: cell-based. Also on record: expressed in transfected cells. The following applies: no clear difference in kinetics between the two ligands.
T1 sequence (P43220 24-463): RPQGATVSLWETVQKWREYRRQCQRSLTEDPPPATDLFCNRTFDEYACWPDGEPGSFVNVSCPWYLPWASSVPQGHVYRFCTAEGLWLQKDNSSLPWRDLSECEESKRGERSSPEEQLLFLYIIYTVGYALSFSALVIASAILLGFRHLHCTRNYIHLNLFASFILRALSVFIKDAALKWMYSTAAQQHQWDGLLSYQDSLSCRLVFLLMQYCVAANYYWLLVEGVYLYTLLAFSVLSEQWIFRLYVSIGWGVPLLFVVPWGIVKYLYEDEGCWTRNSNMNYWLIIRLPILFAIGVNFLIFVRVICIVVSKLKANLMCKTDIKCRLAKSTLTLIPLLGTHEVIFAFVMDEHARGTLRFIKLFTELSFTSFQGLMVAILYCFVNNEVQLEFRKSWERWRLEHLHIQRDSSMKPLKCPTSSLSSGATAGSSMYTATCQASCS
Another series relates to INS-1 832/3 cells. Nature of the series: Insulin release after overnight incubation, INS-1 832/3 cells. It is filed as cell-based. The following applies: 16 h (overnight), range of concentrations, 11 mM glucose, HTRF. Here is the method: Mouse islets (10/well) were incubated in triplicate for each condition and treatment. Islets were preincubated for 1 hour in 3 mM glucose KRH buffer prior to secretion assay (30 min) in 3 mM or 11 mM glucose with vehicle or 100 nM SM102 or Semaglutide. The secretion medium was then collected to measure the insulin and proinsulin concentrations using an insulin HTRF kit (Cisbio Bioassays). INS-1 832/3 cells were treated with the indicated concentrations of SM102 or Semaglutide for 16 h in complete RPMI1640 medium at 11 mM glucose. A sample of supernatant was collected and analyzed for insulin content by HTRF.

The subject of a further series is mouse pancreatic islets. Nature of the series: Static acute insulin secretion, mouse islets. Type of series: cell-based. As for the experimental part:
Mice were euthanized by cervical dislocation and pancreatic islets isolated by collagenase digestion as previously described and cultured in RPMI 1640 medium, 11 mM glucose, supplemented with 10% (v/v) FBS plus penicillin (100 units/mL), and streptomycin (0.1 mg/mL) at 37°C in an atmosphere of humidified air (95%) and CO2 (5%).
Mouse islets (10/well) were incubated in triplicate for each condition and treatment. […] The secretion medium was then collected to measure the insulin and proinsulin concentrations using an insulin HTRF kit (Cisbio Bioassays). INS-1 832/3 cells were treated with the indicated concentrations of SM102 or Semaglutide for 16 h in complete RPMI1640 medium at 11 mM glucose. A sample of supernatant was collected and analyzed for insulin content by HTRF.

The nature of series [2]: Pharmacokinetics in CD-1 mice. It is filed as in vivo, mouse. The following applies: mouse, plasma, sc; single subcutaneous injection, 1 mg/kg, male CD-1 mice.
For series [3], the target named is T1, GLP-1R. Nature of the series: GLP-1R binding affinity. The following applies: compared to Semaglutide. Details: expressed in transfected cells.
For the next series, the system named is diabetic DES mice. Nature of the series: Chronic administration study in diabetic DES mice. It is filed as in vivo, mouse. The following applies: for increase in number of conjunctival goblet cells vs control mice: PAS staining. As for the experimental part:
DES in db/db mice was induced by twice daily administration of 5 μL of 0.2% benzalkonium chloride (Sigma-Aldrich) for 7 days. All diabetic DES mice were divided into vehicle group, SM102 treatment groups (1, 3 and 9 nmol/kg), Semaglutide treatment group (15 nmol/kg), and dulaglutide (1.5 nmol/kg) (n = 8 per group; 4 male, 4 female). The drugs were injected subcutaneously into the neck region of the animals on every other day for 4 weeks.
The mouse’s lower eyelid was gently pulled downward, and a line with a 1 mm length of the phenol red cotton thread was placed on the upper part of the palpebral conjunctiva for 15 seconds near the inner part about one-third of the distance from the outer corner of the eyelid. The length of the colored part of the phenol red thread was recorded as the tear secretion. 1 μL of 0.1% liquid fluorescein sodium was instilled into the conjunctival sac followed by three blinks, and tear breakup time (BUT) was recorded in seconds.
[…] The levels of interleukin-6 (IL-6), interleukin-1β (IL-1β), tumor necrosis factor-α (TNF-α), transforming growth factor β1 (TGF-β1) and malondialdehyde (MDA) as well as superoxide dismutase (SOD) activity in the supernatant were measured using appropriate ELISA kits brought from R&D company (USA). The expression levels of p38/p-p38, JNK/pJNK and ERK/p-ERK were analyzed by Western blot methods as previously reported.
Hematoxylin and eosin (H&E) staining were performed as described below: Corneas were fixed in 4% formalin. After dehydration, the specimens were embedded in paraffin and serial sections of 6 μm thickness were cut and stained with a hematoxylin-eosin reagent. Periodic Acid–Schiff (PAS) staining were performed as described below: Conjunctiva was fixed in 4% formalin. After dehydration, the specimens were embedded in paraffin and serial sections of 6 μm thickness were cut and stained with 0.5% PAS staining. The number of positively stained cup-shaped cells in the stained conjunctival sections was counted using image-Pro Plus6.0 (MediaCybernetics, USA).

Series [4] deals with T1, GLP-1R. Nature of the series: PathHunter β-arrestin-2 recruitment. The following applies: SM102 vs Semaglutide; 30 min at 37°C, luminescence. Also on record: host or cells: CHO-K1 (PathHunter). It is filed as cell-based. Here is the method: HEK293 cells stably expressing human GLP-1R (hGLP-1 R) (generated in-house using HEK293 cell line purchased from ATCC, Cat# CRL-1573) were maintained in Dulbecco’s Modified Eagle Medium (DMEM, Gibco, 11,054,020) with 10% fetal bovine serum (FBS, Gibco, 10,099,133 C), 1% penicillin/streptomycin (Gibco, 10,378,016) and 1 mg/mL G418 (Gibco, 10,131,035). Wild-type INS-1 832/3 cells, or INS-1 832/3 cells lacking endogenous GLP-1 R (generated in-house using INS-1 832/3 cell line purchased from NTCC, Cat# CVCL_ZL55) were maintained in RPMI-1640 (Gibco, 22,400,071) with 1 mM sodium pyruvate (Gibco, 11,360,070), 50 μM β-mercaptoethanol (Gibco, 21,985,023), 10% FBS, and 1% penicillin/streptomycin. PathHunter CHO-K1-βarr2-EAGLP1R cells (DiscoverX) were maintained in F12 medium (Gibco, 11,320,033) with 10% FBS, 1% penicillin/streptomycin, 1 mg/mL G418 and 250 μg/mL hygromycin (Gibco, 10,687,010).
PathHunter CHO-K1-βarr2-EA-GLP-1 R cells were stimulated with agonist for 30 min at 37°C in Ham’s F12 medium (Gibco, 11,765,054) without FBS. At the end of the incubation period cells were lysed by addition of PathHunter detection reagents and luminescent signal was subsequently recorded from each well.
Background: Activated receptors often draw arrestin, which recruitment assays turn into a signal.

Setting [5] is: all 3 doses of SM102, Western blot, p < 0.05.
Where [6] appears, read: corneal homogenates, 4 weeks, ELISA.

Take `CC[C@H](C)[C@H](NC(=O)[C@H](Cc1ccccc1)NC(=O)[C@H](CCC(=O)O)NC(=O)[C@H](CCCCNC(=O)COCCOCCNC(=O)C(C)(C)NC(=O)CC[C@H](NC(=O)CCCCCCCCCCCCCCCCC(=O)O)C(=O)O)NC(=O)[C@H](C)NC(=O)[C@H](C)NC(=O)[C@H](CCC(N)=O)NC(=O)CNC(=O)[C@H](CCC(=O)O)NC(=O)[C@H](CC(C)C)NC(=O)[C@H](Cc1ccc(O)cc1)NC(=O)[C@H](CO)NC(=O)[C@H](CO)NC(=O)[C@@H](NC(=O)[C@H](CC(=O)O)NC(=O)[C@H](CO)NC(=O)[C@@H](NC(=O)[C@H](Cc1ccccc1)NC(=O)[C@@H](NC(=O)CNC(=O)[C@H](CCC(=O)O)NC(=O)C(C)(C)NC(=O)[C@@H](N)Cc1c[nH]cn1)[C@@H](C)O)[C@@H](C)O)C(C)C)C(=O)N[C@@H](C)C(=O)N[C@@H](Cc1c[nH]c2ccccc12)C(=O)N[C@@H](CC(C)C)C(=O)N[C@H](C(=O)N[C@@H](CCCNC(=N)N)C(=O)NCC(=O)N[C@@H](CCCNC(=N)N)C(=O)NCC(=O)N[C@@H](CC(C)C)C(N)=O)C(C)C` [SM102]: at GLP-1R [1], the “GLP-1 R endocytosis” value is listed as “rapid GLP-1 R endocytosis”. For the same compound, in the series with INS-1 832/3 cells, the “insulin release responses, SM102 vs Semaglutide” value is on record as “virtually indistinguishable”. Further, the “glucose-stimulated insulin secretion, SM102 vs Semaglutide, lower doses” value with mouse pancreatic islets (1 and 10 nM, data not shown) was “differences were not apparent”. Further, the “glucose-stimulated insulin secretion (GSIS)” value with mouse pancreatic islets (islets from C57BL/6 mice, 11 mM glucose, 100 nM agonist, 30 min, no difference between agonists) is recorded as “potentiation of GSIS”. In addition, in series [2], the half-life was roughly 47.6 h. The “GLP-1 R binding affinity” value on GLP-1R [3] is listed as “moderate increases”. The “breakup time of tear film” value in the series with diabetic DES mice (4-week treatment) is listed as “significantly prolonged”. Moreover, in the series with diabetic DES mice (4 weeks of treatment, phenol red cotton thread), the “tear secretion level vs control group” value is “significantly enhanced”. Besides, in the series with diabetic DES mice (SM102 1 nmol/kg, 4 weeks), the “increase in number of conjunctival goblet cells vs control mice” value (“increase in number” for short) is listed as “approximately 1 fold”. The “increase in number” value in the series on diabetic DES mice (SM102 3 nmol/kg, 4 weeks) is recorded as roughly 4 fold. Further, in the series with diabetic DES mice (SM102 9 nmol/kg, 4 weeks), the “tear secretion level vs Semaglutide or dulaglutide” value is given as “significantly higher” and the “increase in number” value is roughly 5 fold. Moreover, in the series on diabetic DES mice (setting [5]), the “phosphorylation level of ERK vs model group” value is reported as “significantly lower”, the “phosphorylation level of JNK vs model group” value is “significantly lower” and the “phosphorylation level of p38 vs model group” value is “significantly lower”. In addition, in the series with diabetic DES mice (corneal homogenate, 4 weeks, ELISA), the “concentration of MDA vs vehicle group” value was “significantly decreased”. Also, in the series on diabetic DES mice (setting [6]), the “level of IL-1β vs control mice” value is “significantly reduced”, the “level of IL-6 vs control mice” value is listed as “significantly reduced”, the “level of TGF-β1 vs control mice” value is listed as “increased” and the “level of TNF-α vs control mice” value is reported as “significantly reduced”. Also, the SOD activity entry with diabetic DES mice (dose range 1 ~ 9 nmol/kg, 4 weeks) is listed as “dose-dependent significant increase”. Further, the “corneal tissue damage (H&E staining)” value with diabetic DES mice (medium and high dose SM102, 4 weeks) was “significantly reversed corneal tissue damage”. The “β-arrestin-2 recruitment response potency or Emax” value on GLP-1R [4] is listed as “no differences in response potency or Emax”.
